# Results reported in ChEMBL document CHEMBL4342498, “Design and Discovery of an Orally Efficacious Spiroindolinone-Based Tankyrase Inhibitor for the Treatment of Colon Cancer” (J Med Chem, 2020).
# Columns and labels:
# COLO 320DM = assay: Antiproliferative activity against human COLO320DM cells assessed as inhibition of cell growth measured after 4 days by CellTiter-Glo assay; format: functional; conditions: 96 h
# [1] = Efflux ratio of permeability across basolateral to apical side over apical to basolateral side in MDCK2 cells; format: ADME, cell-based, Canis lupus familiaris, MDCK-II; conditions: dog, mdck
# Tankyrase 1/2 [2] = target: T1, Tankyrase 1/2 (Homo sapiens, UniProt Q9H2K2+O95271); conditions: hek293
# T1 sequence (Q9H2K2 whole entry): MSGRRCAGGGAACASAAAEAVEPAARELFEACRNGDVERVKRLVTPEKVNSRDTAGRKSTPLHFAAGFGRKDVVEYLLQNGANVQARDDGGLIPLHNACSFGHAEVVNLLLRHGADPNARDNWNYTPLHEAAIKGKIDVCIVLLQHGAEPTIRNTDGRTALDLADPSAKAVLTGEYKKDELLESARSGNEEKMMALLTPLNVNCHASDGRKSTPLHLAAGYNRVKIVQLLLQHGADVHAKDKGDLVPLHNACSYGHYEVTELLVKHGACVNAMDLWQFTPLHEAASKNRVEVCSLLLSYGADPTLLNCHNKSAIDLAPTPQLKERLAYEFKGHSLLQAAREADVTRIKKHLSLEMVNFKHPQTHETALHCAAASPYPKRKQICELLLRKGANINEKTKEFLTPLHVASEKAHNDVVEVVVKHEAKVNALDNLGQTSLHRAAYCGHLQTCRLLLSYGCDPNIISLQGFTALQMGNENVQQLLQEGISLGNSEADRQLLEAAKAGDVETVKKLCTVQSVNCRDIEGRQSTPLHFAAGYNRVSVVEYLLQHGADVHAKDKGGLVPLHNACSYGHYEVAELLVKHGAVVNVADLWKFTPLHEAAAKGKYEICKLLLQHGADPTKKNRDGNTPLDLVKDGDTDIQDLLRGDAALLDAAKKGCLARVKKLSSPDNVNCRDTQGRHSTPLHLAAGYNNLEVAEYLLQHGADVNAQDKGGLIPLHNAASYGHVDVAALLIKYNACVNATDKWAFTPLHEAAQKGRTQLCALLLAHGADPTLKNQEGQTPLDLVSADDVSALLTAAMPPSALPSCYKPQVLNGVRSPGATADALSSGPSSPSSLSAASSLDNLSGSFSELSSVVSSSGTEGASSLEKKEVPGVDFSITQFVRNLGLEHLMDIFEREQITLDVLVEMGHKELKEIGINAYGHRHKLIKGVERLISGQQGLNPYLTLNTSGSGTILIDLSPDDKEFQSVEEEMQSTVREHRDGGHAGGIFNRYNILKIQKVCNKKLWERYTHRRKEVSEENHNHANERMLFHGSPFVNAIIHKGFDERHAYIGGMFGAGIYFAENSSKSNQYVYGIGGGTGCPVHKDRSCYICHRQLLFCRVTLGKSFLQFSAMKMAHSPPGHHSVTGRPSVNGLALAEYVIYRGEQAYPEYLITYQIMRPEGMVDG
# T1 sequence (O95271 whole entry): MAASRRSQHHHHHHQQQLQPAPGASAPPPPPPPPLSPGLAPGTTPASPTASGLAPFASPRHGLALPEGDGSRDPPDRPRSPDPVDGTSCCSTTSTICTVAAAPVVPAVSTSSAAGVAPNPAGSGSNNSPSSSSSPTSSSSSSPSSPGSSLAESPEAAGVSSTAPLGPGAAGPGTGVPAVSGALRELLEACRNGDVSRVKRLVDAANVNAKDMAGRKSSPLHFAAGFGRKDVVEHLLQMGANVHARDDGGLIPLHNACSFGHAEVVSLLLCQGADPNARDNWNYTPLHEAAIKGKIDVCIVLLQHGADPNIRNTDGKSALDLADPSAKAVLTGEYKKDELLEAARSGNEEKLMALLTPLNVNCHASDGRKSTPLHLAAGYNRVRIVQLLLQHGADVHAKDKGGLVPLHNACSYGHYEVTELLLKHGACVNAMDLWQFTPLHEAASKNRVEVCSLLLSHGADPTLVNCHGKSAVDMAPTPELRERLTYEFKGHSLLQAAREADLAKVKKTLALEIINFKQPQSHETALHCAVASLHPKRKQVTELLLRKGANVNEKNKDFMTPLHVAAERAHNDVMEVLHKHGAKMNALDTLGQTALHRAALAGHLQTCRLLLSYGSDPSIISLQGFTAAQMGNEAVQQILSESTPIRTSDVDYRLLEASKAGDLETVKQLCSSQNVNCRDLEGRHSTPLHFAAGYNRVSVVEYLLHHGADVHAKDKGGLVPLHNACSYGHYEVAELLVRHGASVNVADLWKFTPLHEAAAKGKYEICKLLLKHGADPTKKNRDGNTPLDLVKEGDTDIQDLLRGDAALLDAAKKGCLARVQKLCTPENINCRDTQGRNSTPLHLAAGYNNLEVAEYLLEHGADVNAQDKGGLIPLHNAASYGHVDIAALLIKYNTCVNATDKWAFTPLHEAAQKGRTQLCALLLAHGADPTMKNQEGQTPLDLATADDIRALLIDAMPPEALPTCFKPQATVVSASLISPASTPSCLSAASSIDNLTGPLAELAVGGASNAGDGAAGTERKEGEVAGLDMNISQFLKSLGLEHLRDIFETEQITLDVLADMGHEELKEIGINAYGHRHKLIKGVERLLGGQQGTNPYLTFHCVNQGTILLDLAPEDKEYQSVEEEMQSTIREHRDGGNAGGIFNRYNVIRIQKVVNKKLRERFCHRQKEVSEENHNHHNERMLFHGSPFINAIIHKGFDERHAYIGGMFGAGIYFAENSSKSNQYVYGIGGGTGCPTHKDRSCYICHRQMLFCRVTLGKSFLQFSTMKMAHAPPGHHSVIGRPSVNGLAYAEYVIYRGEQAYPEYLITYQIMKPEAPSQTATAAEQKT
# Description: Inhibition of TNKS/TNKS2 (unknown origin) expressed in HEK293 cells assessed as reduction in Wnt-signaling measured after 24 hrs by TCF-luciferase reporter gene assay
# physchem = conditions: phosphate buffered saline, pH 7.4
# [3] = Stability in mouse liver microsomes assessed as parent compound remaining at 1 uM measured after 60 mins in presence of NADPH by LC-MS/MS analysis; format: ADME, Microsome; conditions: read-out: Stability
# MDR1 = assay: Efflux ratio of permeability across basolateral to apical side over apical to basolateral side in MDCK2-MDR1 cells; format: ADME, cell-based, Canis lupus familiaris; conditions: dog, MDCK-MDR1
# [4] = target: T2, Poly [ADP-ribose] polymerase tankyrase-2 (Homo sapiens, UniProt Q9H2K2); assay: Inhibition of recombinant human N-terminal TEV cleavage site-fused/FLAG-poly his-tagged TNKS2 ARC5-SAM-PARP domain (613 to 1166 residues) expressed in Escherichia coli assessed as reduction in auto-PARylation preincubated for 10 mins followed by biotinylated-NAD+ addition and measured after 45 mins by ELISA
# T2 sequence (Q9H2K2 whole entry): T1 sequence (Q9H2K2 whole entry)
# Tankyrase 1/2 [5] = target: T1, Tankyrase 1/2
# Description: Inhibition of TNKS/TNKS2 (unknown origin) expressed in human DLD1 cells assessed as reduction in Wnt-signaling measured after 24 hrs by TCF-luciferase reporter gene assay
# [6] = Stability in human liver microsomes assessed as parent compound remaining at 1 uM measured after 60 mins in presence of NADPH by LC-MS/MS analysis; format: ADME, Microsome; conditions: read-out: Stability
# [7] = target: T3, Poly [ADP-ribose] polymerase tankyrase-1 (Homo sapiens, UniProt O95271)
# T3 sequence (O95271 whole entry): T1 sequence (O95271 whole entry)
# Description: Inhibition of recombinant human N-terminal TEV cleavage site-fused/FLAG-poly his-tagged TNKS SAM-PARP domain (1024 to 1327 residues) expressed in Escherichia coli assessed as reduction in auto-PARylation preincubated for 10 mins followed by biotinylated-NAD+ addition and measured after 45 mins by ELISA
# [8] = Net efflux ratio of permeability across basolateral to apical side over apical to basolateral side in MDCK2-MDR1 cells to MDCK2 cells; format: ADME, cell-based, Canis lupus familiaris; conditions: dog, mdck
GI50 (COLO 320DM),efflux ratio [1],IC50 (Tankyrase 1/2 [2]),"solubility at 1 h, 200 µM (physchem)","remaining at 1 h, 1 µM [3]",efflux ratio (MDR1),IC50 [4],IC50 (Tankyrase 1/2 [5]),"remaining at 1 h, 1 µM [6]",IC50 [7],Ratio [8],SMILES
100 nM,1.9,0.1 nM,72.2 µg/mL,46.5%,7.8,10.5 nM,2 nM,6.3%,14.9 nM,4.1,CN1CCCc2c1nc(N1CCC3(CC1)C(=O)N(C)c1cc(N4CCOCC4)cc(F)c13)[nH]c2=O
810 nM,9.2,0.3 nM,95 µg/mL,83.7%,22.7,11.1 nM,6.1 nM,54.4%,4.9 nM,2.5,CN(C)CCOc1cc(F)c2c(c1)N(C)C(=O)C21CCN(c2nc3c(c(=O)[nH]2)CCCN3C)CC1
530 nM,3.3,0.1 nM,3 µg/mL,0.1%,12,5.5 nM,5.7 nM,4.1%,4.3 nM,3.6,CN1CCCc2c1nc(N1CCC3(CC1)C(=O)N(CS(C)(=O)=O)c1cc(F)cc(F)c13)[nH]c2=O
850 nM,6.2,0.1 nM,102 µg/mL,82.7%,23.1,20.2 nM,4.3 nM,33%,11.1 nM,3.7,C[C@@H]1CN(c2cc(F)c3c(c2)N(C)C(=O)C32CCN(c3nc4c(c(=O)[nH]3)CCCN4C)CC2)C[C@H](C)N1
130 nM,1.1,0.2 nM,4.8 µg/mL,0%,2.7,6.2 nM,4.5 nM,1.9%,4.4 nM,2.5,COc1cc(F)c2c(c1)N(C)C(=O)C21CCN(c2nc3c(c(=O)[nH]2)CCCN3C)CC1
2490 nM,,0.2 nM,,,,3.4 nM,4.8 nM,,5.3 nM,,Cc1cccc2c(=O)[nH]c(N3CCC4(CC3)C(=O)N(CCO)c3cc(F)cc(F)c34)nc12
710 nM,11.2,0.7 nM,88.2 µg/mL,42.7%,43.7,12.5 nM,14.5 nM,23.9%,8.9 nM,3.9,CN1CCCc2c1nc(N1CCC3(CC1)C(=O)N(CC(O)CO)c1cc(F)cc(F)c13)[nH]c2=O (centres undefined)
1170 nM,1.1,4.6 nM,7.4 µg/mL,1.8%,2.7,13 nM,20.7 nM,1.8%,6.3 nM,2.5,CN(C)c1cc(F)c2c(c1)N(C)C(=O)C21CCN(c2nc3c(c(=O)[nH]2)CCCN3C)CC1
1080 nM,7.1,0.4 nM,100 µg/mL,100%,21.9,12.4 nM,6.6 nM,61.5%,11.1 nM,3.1,CN1CCCc2c1nc(N1CCC3(CC1)C(=O)N(C)c1cc(OCCN4CCCC4)cc(F)c13)[nH]c2=O
300 nM,1,0.7 nM,5 µg/mL,10.5%,2.3,49.1 nM,6.4 nM,1.5%,21.3 nM,2.3,CN1CCCc2c1nc(N1CCC3(CC1)C(=O)N(C)c1cc(N4CCCCC4)cc(F)c13)[nH]c2=O
> 20000 nM,,1.5 nM,,,,10.2 nM,6.3 nM,,4.5 nM,,Cn1ccc2c(=O)[nH]c(N3CCC4(CC3)C(=O)N(CCO)c3cc(F)cc(F)c34)nc21
3560 nM,,1.1 nM,,,,7 nM,7.1 nM,,3.8 nM,,Cn1ccc2c(=O)[nH]c(N3CCC4(CC3)CN(CCO)c3cc(F)cc(F)c34)nc21
720 nM,,3.1 nM,,,,8.5 nM,13.7 nM,,5.5 nM,,Cc1cccc2c(=O)[nH]c(N3CCC4(CC3)CN(CCO)c3cc(F)cc(F)c34)nc12
2270 nM,,2.1 nM,,,,20.6 nM,71.2 nM,,14.9 nM,,O=C1N(CCO)c2cc(F)cc(F)c2C12CCN(c1nc3c(c(=O)[nH]1)CCCC3)CC2
2370 nM,,4.4 nM,,,,27.6 nM,32.9 nM,,14.1 nM,,CN1CCc2c1nc(N1CCC3(CC1)C(=O)N(CCO)c1cc(F)cc(F)c13)[nH]c2=O
5010 nM,,36.5 nM,,,,73.6 nM,140.6 nM,,53.5 nM,,CN1CCc2c1nc(N1CCC3(CC1)CN(CCO)c1cc(F)cc(F)c13)[nH]c2=O
